Measurements as given in patent US8710233B2 (Gruenenthal GmbH, priority 2005, dated 2014).
Like-named read-outs stand apart in the source and are kept apart here.

How the values were obtained:
Type in all cases: cell-based
[1] = molecular target: T1, vanilloid receptor (VR1) (Homo sapiens, UniProt Q8NER1); experiment: FLIPR Ca2+ influx assay on CHO K1 cells transfected with the VR1 gene (pharmacological method II)
T1 construct: expressed in transfected cells; host or cells: CHO K1 cells (ECACC), stably transfected

[2] = molecular target: VR1/TRPV1 receptor (Homo sapiens, UniProt Q8NER1); experiment: IC50 (human) after pH stimulus; details: for inhibition at 1 µM: ne = no effect; for inhibition at 1 µM / inhibition at 0.1 µM: read-out: inhibition in percent, IC50 (human) after pH stimulus
[3] = molecular target: T2, vanilloid receptor 1 (VR1/TRPV1) of the rat species (Rattus norvegicus, UniProt O35433); experiment: FLIPR Ca2+ influx assay on rat dorsal root ganglia cells (pharmacological method I)
T2 construct: The spinal column is removed from decapitated rats; from tissue; host or cells: primary cells dissociated from rat dorsal root ganglia
Excerpt: I. Functional Investigation of the Vanilloid Receptor 1 (VR1/TRPV1 Receptor)
The agonistic or antagonistic action of the substances to be investigated on the vanilloid receptor 1 (VR1/TRPV1) of the rat species may be determined by the following assay. According to this assay, the influx of Ca^2+ through the receptor channel is quantified with the assistance of a Ca^2+-sensitive dye (type Fluo-4, Molecular Probes Europe BV, Leiden, Netherlands) in a Fluorescent Imaging Plate Reader (FLIPR, Molecular Devices, Sunnyvale, USA).
The spinal column is removed from decapitated rats and is placed directly in cold, i.e. located in an ice bath, HBSS buffer (Hank's buffered saline solution, Gibco Invitrogen GmbH, Karlsruhe, Germany) combined with 1 vol. % (percent by volume) of an AA solution (antibiotic/antimycotic solution, PAA, Pasching, Austria). The spinal column is cut open longitudinally and removed together with fasciae from the spinal canal. The dorsal root ganglia (DRGs) are then removed and in turn stored in cold HBSS buffer combined with 1 vol. % of an AA solution. The DRGs, from which all traces of blood and spinal nerves have been removed, are in each case transferred into 500 μL of cold collagenase type 2 (PAA, Pasching, Austria) and incubated for 35 minutes at 37° C. […] Once incubation is complete, the enzyme solution is carefully removed by pipette and the DRGs, which are left behind, are in each case combined with 500 μL of complete medium.
The DRGs are in each case repeatedly suspended, drawn by means of a syringe through […], no. 12 and no. 16 cannulas and transferred into 50 mL Falcon microtubes and each tube is made up to 15 mL with complete medium. The contents of each Falcon microtube are in each case filtered through a 70 μm Falcon filter insert and centrifuged for 10 minutes at 1200 revolutions and room temperature. The resultant pellet is in each case resuspended in 250 μL of complete medium and the cell count determined.
The number of cells in the suspension is adjusted to 3×10^5 per mL and a 150 μL portion of this suspension is in each case placed in a well of the cell culture plate which has been coated as described above.
The cells are then loaded with 2 μM Fluo-4 and 0.01 vol. % Pluronic F127 (Molecular Probes Europe BV, Leiden, Netherlands) in HBSS buffer (Hank's buffered saline solution, Gibco Invitrogen GmbH, Karlsruhe, Germany) for 30 min at 37° C., washed 3× with HBSS buffer and, after a further 15 minutes' incubation at room temperature, used for Ca^2+ measurement in the FLIPR assay. […] Quantification proceeds by measuring the highest fluorescence intensity (FC, fluorescence counts) over time.
The FLIPR protocol comprises 2 additions of substance. The compounds to be tested (10 μM) are firstly pipetted onto the cells and Ca^2+ influx is compared with the control (capsaicin 10 μM). This provides the percentage activation relative to the Ca^2+ signal after addition of 10 μM of capsaicin (CP). After 5 minutes' incubation, 100 nM of capsaicin are added and the influx of Ca^2+ is again determined.
Desensitising agonists and antagonists result in suppression of Ca^2+ influx. The percentage inhibition in comparison with the maximum achievable inhibition with 10 μM capsaicin is calculated.
Triplicate determinations (n═3) are performed and these are repeated in at least 3 independent experiments […].

[4] = table 4, capsaicin, read-out: Ki (human) Cap.
[5] = table 4, capsaicin, read-out: Ki (rat) Cap.
[6] = Table 2, displacement of capsaicin (100 nM), Cheng-Prusoff, read-out: Ki (human)
[7] = Table 2, displacement of capsaicin (100 nM), Cheng-Prusoff, read-out: Ki (rat)

T2 sequence (O35433 whole entry): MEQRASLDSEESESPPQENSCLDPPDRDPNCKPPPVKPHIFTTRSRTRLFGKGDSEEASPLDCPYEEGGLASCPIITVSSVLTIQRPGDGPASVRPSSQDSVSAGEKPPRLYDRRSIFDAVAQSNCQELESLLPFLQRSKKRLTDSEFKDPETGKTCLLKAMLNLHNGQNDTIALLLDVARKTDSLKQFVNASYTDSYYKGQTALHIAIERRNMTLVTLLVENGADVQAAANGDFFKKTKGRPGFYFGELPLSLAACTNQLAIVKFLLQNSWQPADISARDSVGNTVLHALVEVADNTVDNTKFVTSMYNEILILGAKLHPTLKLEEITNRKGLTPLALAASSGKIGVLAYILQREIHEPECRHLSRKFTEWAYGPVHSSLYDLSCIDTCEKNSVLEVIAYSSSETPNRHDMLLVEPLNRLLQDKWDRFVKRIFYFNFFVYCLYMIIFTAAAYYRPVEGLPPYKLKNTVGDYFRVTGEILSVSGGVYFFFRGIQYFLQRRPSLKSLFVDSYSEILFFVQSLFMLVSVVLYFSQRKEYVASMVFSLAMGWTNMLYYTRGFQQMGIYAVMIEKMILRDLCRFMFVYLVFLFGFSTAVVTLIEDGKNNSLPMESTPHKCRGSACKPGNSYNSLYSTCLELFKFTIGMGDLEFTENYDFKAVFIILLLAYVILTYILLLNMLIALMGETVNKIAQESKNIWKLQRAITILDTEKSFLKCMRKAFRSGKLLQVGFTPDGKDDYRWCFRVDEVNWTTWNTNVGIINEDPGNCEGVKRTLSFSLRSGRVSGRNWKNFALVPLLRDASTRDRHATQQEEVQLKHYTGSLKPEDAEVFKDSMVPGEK
VR1/TRPV1 receptor, sequence (Q8NER1 whole entry): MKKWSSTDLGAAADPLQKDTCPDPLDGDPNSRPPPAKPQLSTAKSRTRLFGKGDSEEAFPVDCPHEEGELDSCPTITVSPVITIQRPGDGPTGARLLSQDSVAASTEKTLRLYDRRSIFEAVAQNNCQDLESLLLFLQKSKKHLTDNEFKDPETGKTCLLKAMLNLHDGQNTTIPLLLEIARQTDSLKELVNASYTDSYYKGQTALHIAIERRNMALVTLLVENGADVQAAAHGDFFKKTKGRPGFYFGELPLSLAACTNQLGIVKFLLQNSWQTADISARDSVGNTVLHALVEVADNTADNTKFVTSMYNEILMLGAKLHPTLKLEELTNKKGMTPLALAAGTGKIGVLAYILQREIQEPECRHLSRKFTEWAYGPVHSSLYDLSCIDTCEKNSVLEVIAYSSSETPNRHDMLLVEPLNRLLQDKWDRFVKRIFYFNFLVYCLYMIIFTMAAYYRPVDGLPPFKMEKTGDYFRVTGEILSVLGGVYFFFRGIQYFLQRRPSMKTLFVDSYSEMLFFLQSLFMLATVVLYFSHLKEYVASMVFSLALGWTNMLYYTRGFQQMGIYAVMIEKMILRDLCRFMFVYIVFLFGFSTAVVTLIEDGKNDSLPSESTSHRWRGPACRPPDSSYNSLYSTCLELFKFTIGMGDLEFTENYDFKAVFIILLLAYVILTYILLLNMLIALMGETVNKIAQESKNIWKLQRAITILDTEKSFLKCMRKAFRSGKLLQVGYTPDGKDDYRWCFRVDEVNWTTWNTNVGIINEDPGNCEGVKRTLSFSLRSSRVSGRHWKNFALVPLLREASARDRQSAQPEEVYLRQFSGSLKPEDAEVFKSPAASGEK
T1 sequence (Q8NER1 whole entry): as above

Row | Ki [1, 4] [nM] | IC50 ([2]; table 4) [nM] | Ki [3, 5] [nM] | SMILES | other results
1 | 0.5 | 9.7 | 0.7 | CC(C(=O)NCc1ccc(C(F)(F)F)nc1-c1cccc(Cl)c1)c1ccc(NS(C)(=O)=O)c(F)c1 (centres unmarked) [Example 149, N-[2-(3-chloro-phenyl)-6-trifluoromethyl-pyridin-3-ylmethyl]-2-(3-fluoro-4-methylsulfonamido-phenyl)-propionamide] | 
2 | 0.7 | 17.7 | 0.7 | CCC1CCN(c2cc(C(F)(F)F)ccc2CNC(=O)C(C)c2ccc(NS(C)(=O)=O)c(F)c2)CC1 (centres unmarked) [Example 229, N-[2-(4-ethyl-piperidin-1-yl)-4-trifluoromethyl-benzyl]-2-(3-fluoro-4-methylsulfonamido-phenyl)-propionamide] | 
3 | 0.7 | 30.7 | 0.6 | CC(C(=O)NCc1ccc(C(F)(F)F)nc1N1CCN(c2ccccc2)CC1)c1ccc(NS(C)(=O)=O)c(F)c1 (centres unmarked) [Example 109, 2-(3-fluoro-4-methylsulfonamido-phenyl)-N-[2-(4-phenyl-piperazin-1-yl)-6-trifluoromethyl-pyridin-3-ylmethyl]-propionamide] | 
4 | 0.6 |  | 0.7 | CC(C(=O)NCc1ccc(C(F)(F)F)nc1CCC(C)(C)C)c1ccc(NS(C)(=O)=O)c(F)c1 (centres unmarked) [Example 263, N-[2-(3,3-dimethyl-butyl)-6-trifluoromethyl-pyridin-3-ylmethyl]-2-(3-fluoro-4-methylsulfonamido-phenyl)-propionamide] | inhibition at 1 µM [2]: 63%
5 | 1.5 | 97.3 | 0.4 | CCC1CCN(c2nc(C(F)(F)F)ccc2CNC(=O)C(C)c2ccc(NS(C)(=O)=O)c(F)c2)CC1 (centres unmarked) [Example 197, N-(4-ethyl-6′-trifluoromethyl-3,4,5,6-tetrahydro-2H-[1,2′]bipyridinyl-3′-ylmethyl)-2-(3-fluoro-4-methylsulfonamido-phenyl)-propionamide] | 
6 | 0.6 | 26 | 0.5 | CC(C(=O)NCc1ccc(C(F)(F)F)cc1OC1CCCC1)c1ccc(NS(C)(=O)=O)c(F)c1 (centres unmarked) [Example 42, N-(2-(cyclopentyloxy)-4-(trifluoromethyl)benzyl)-2-(3-fluoro-4-(methylsulfonamido)phenyl)propanamide] | 
7 | 0.7 |  | 0.6 | CC(C(=O)NCc1ccc(C(F)(F)F)cc1OC1CCCCC1)c1ccc(NS(C)(=O)=O)c(F)c1 (centres unmarked) [Example 238, N-(2-cyclohexyloxy-4-trifluoromethyl-benzyl)-2-(3-fluoro-4-methylsulfonamido-phenyl)-propionamide] | inhibition at 0.1 µM [2]: 39%; inhibition at 1 µM [2]: 55%
8 | 0.7 | 25.6 | 0.8 | CC1CC(C)CN(c2nc(C(F)(F)F)ccc2CNC(=O)C(C)c2ccc(NS(C)(=O)=O)c(F)c2)C1 (centres unmarked) [Example 79, 2-(3-fluoro-4-methylsulfonamido-phenyl)-N-(2-3,5 dimethylpiperidin-1-yl-6-trifluoromethyl-pyridin-3-ylmethyl)-propionamide] | 
9 | 14.6 | 1070 | 5.6 | CC(C(=O)NCc1ccc(C(F)(F)Cl)nc1OCc1cccnc1)c1ccc(NS(C)(=O)=O)c(F)c1 (centres unmarked) [Example 181, N-[6-(chloro-difluoro-methyl)-2-(pyridin-3-ylmethoxy)-pyridin-3-ylmethyl]-2-(3-fluoro-4-methylsulfonamido-phenyl)-propionamide] | 
10 | 0.3 | 40.5 |  | CC(C(=O)NCc1ccc(C(F)(F)F)nc1OCC1CCC1)c1ccc(NS(C)(=O)=O)c(F)c1 (centres unmarked) [Example 101, N-(2-cyclobutylmethoxy-6-trifluoromethyl-pyridin-3-ylmethyl)-2-(3-fluoro-4-methylsulfonamido-phenyl)-propionamide] | Ki ([3]; Ki (rat) Cap., table 4, capsaicin): 1 nM
11 | 0.6 |  | 0.4 | Cc1cc(C(C)C(=O)NCc2ccc(C(F)(F)F)nc2N2CCC(C)CC2)ccc1NS(C)(=O)=O (centres unmarked) [Example 196, 2-(4-methylsulfonamido-3-methyl-phenyl)-N-(4-methyl-6′-trifluoromethyl-3,4,5,6-tetrahydro-2H-[1,2′]bipyridinyl-3′-ylmethyl)-propionamide] | inhibition at 1 µM [2]: 41%
12 |  |  |  | CC(C(=O)NCc1ccc(C(F)(F)F)nc1N1CCCC1)c1ccc(NS(C)(=O)=O)c(F)c1 (centres unmarked) [Example 13, 2-(3-fluoro-4-(methylsulfonamido)phenyl)-N-((2-(pyrrolidin-1-yl)-6-(trifluoromethyl)pyridin-3-yl)methyl)propanamide] | Ki [1, 6]: 0.6 nM; IC50 ([2]; Table 2): 211 nM; Ki [3, 7]: 3.8 nM
13 |  |  |  | C[C@@H](C(=O)NCc1ccc(C(F)(F)F)nc1N1CCCCC1)c1ccc(NS(C)(=O)=O)c(F)c1 [Example 11, (R)-2-(3-fluoro-4-(methylsulfonamido)phenyl)-N-((2-(piperidin-1-yl)-6-(trifluoromethyl)pyridin-3-yl)methyl)propanamide] | Ki [1, 6]: 0.3 nM; IC50 ([2]; Table 2): 46.7 nM; Ki [3, 7]: 1.1 nM
14 | 0.6 | 10.5 | 0.7 | CCCCN(CCCC)c1nc(C(F)(F)F)ccc1CNC(=O)C(C)c1ccc(NS(C)(=O)=O)c(F)c1 (centres unmarked) [Example 183, N-(2-dibutylamino-6-trifluoromethyl-pyridin-3-ylmethyl)-2-(3-fluoro-4-methylsulfonamido-phenyl)-propionamide] | 
15 | 0.9 | 90.1 | 3.5 | CCCOc1nc(C(F)(F)F)ccc1CNC(=O)C(C)c1ccc(NS(C)(=O)=O)c(F)c1 (centres unmarked) [Example 111, 2-(3-fluoro-4-methylsulfonamido-phenyl)-N-(2-propoxy-6-trifluoromethyl-pyridin-3-ylmethyl)-propionamide] | 
16 |  |  |  | C[C@H](C(=O)NCc1ccc(C(F)(F)F)cc1N1CCCCC1)c1ccc(NS(C)(=O)=O)c(F)c1 [Example 31, (S)-2-(3-fluoro-4-(methylsulfonamido)phenyl)-N-(2-(piperidin-1-yl)-4-(trifluoromethyl)benzyl)propanamide] | Ki [1, 6]: 0.6 nM; IC50 ([2]; Table 2): 50 nM; Ki [3, 7]: 0.5 nM
17 | 1.4 | 31 | 1.6 | COCC1CCN(c2nc(C(F)(F)F)ccc2CNC(=O)C(C)c2ccc(NS(C)(=O)=O)c(F)c2)CC1 (centres unmarked) [Example 199, 2-(3-fluoro-4-methylsulfonamido-phenyl)-N-(4-methoxymethyl-6′-trifluoromethyl-3,4,5,6-tetrahydro-2H-[1,2′]bipyridinyl-3′-ylmethyl)-propionamide] | 
18 | 1.8 |  | 0.5 | Cc1cccc(N2CCN(c3cc(C(F)(F)F)ccc3CNC(=O)C(C)c3ccc(NS(C)(=O)=O)c(F)c3)CC2)c1 (centres unmarked) [Example 247, 2-(3-fluoro-4-methylsulfonamido-phenyl)-N-[2-(4-m-tolyl-piperazin-1-yl)-4-trifluoromethyl-benzyl]-propionamide] | inhibition at 0.1 µM [2]: 36%; inhibition at 1 µM [2]: 69%

Row | SMILES | Ki [1, 4] [nM] | IC50 ([2]; table 4) [nM] | Ki [3, 5] [nM] | other results
19 | CCCCOc1nc(C(C)(C)C)ccc1CNC(=O)C(C)c1ccc(NS(C)(=O)=O)c(F)c1 (centres unmarked) [Example 235, N-(2-butoxy-6-tert-butyl-pyridin-3-ylmethyl)-2-(3-fluoro-4-methylsulfonamido-phenyl)-propionamide] | 0.9 | 55 | 0.6 | 
